19 compounds from patent US9260467B2, “Sialic acid dimers” (priority 2011, dated 2016) can be followed below.

This experiment addresses T1, Siglec-2 (CD22) (Homo sapiens, UniProt P20273).
T1 sequence (P20273 20-847): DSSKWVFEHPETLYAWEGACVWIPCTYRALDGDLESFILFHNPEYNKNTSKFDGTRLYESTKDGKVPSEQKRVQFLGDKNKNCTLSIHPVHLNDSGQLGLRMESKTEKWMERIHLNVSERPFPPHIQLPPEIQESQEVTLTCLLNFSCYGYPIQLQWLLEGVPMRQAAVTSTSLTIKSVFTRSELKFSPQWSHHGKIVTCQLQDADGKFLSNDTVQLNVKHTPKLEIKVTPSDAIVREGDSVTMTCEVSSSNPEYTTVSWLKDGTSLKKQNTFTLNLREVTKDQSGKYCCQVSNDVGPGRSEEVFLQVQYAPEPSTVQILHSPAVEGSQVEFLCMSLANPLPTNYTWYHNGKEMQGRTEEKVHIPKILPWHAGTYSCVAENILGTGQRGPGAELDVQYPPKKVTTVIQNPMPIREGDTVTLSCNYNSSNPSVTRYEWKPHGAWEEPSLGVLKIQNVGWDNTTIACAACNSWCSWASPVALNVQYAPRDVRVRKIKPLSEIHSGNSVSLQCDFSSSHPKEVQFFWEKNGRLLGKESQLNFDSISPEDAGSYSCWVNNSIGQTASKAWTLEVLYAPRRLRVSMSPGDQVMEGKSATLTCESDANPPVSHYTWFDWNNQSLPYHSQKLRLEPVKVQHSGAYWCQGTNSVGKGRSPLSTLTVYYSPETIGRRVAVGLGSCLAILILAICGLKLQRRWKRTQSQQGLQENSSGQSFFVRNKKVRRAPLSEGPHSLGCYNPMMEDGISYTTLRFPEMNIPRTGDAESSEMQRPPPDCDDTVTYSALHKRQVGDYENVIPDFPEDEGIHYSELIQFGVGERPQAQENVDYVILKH
Put plainly: new affinity assay: displacement of biotinylated compound 155 from sialidase-treated Daudi cells, FACS with streptavidin-PE. Type of experiment: binding. Set-up: endogenous in cells; host or cells: Daudi (human B-cell lymphoma line). To be noted: Table II; rIP values set relative to compound 38; Daudi cells, displacement of compound 155. The protocol:
To determine the affinity of the compound of the formula (I), approximately 5×10^6 to 2×10^8 cells of the human B-cell lymphoma line “Daudi” were incubated with sialidase (A. ureafaciens) at 37° C. for 1 h (final concentration 0.1 unit/ml). […] Batches of 1-2×10^6 cells were transferred to sample vessels, and incubated on ice for 15 min with serial concentrations (10-fold dilutions, 1 mM to 1×10^−7 mM) of the substance under measurement (inhibitor). The reaction volume was 50 μl. Then 50 microliters of compound 155 (4-micromolar) were added, and incubation took place for 20 min Washing with FACS buffer (PBS, 0.1 BSA, 0.01% sodium azide) was followed by incubation with streptavidin-PE in the dark for 15 min, followed by washing and measurement of the bound amount of […] via the streptavidin-PE in the FACS. For the determination of 0% displacement of the compound 155, cells without inhibitor were measured. For the determination of 100% displacement, cells were measured without compound 155 and without inhibitor. For each assay, four substances and one reference were measured. The IC50 values determined in each assay were subsequently converted into values of rIP (relative Inhibitory Potency). […]
Consider `CC(=O)N[C@H]1[C@H]([C@H](O)[C@H](O)CNC(=O)Cc2ccc(-c3ccccc3)cc2)O[C@@](OCCCSCCNC(=O)c2ccc(C(=O)NCCSCCCO[C@]3(C(=O)[O-])C[C@H](O)[C@@H](NC(C)=O)[C@H]([C@H](O)[C@H](O)CNC(=O)Cc4ccc(-c5ccccc5)cc4)O3)cc2)(C(=O)[O-])C[C@@H]1O.[Na+].[Na+]` [Compound 79], for which the rIP is listed as 181. The same measure for `CC(=O)N[C@H]1[C@H]([C@H](O)[C@H](O)CNC(=O)c2ccc(-c3ccccc3)cc2)O[C@@](OCCCSCCNC(=O)Nc2ccc(NC(=O)NCCSCCCO[C@]3(C(=O)[O-])C[C@H](O)[C@@H](NC(C)=O)[C@H]([C@H](O)[C@H](O)CNC(=O)c4ccc(-c5ccccc5)cc4)O3)cc2)(C(=O)[O-])C[C@@H]1O.[Na+].[Na+]` [Compound 49]: 626. Consider `CC(=O)N[C@H]1[C@H]([C@H](O)[C@H](O)CNC(=O)c2ccc(-c3ccccc3)cc2)O[C@@](OCc2cn(CCNC(=O)c3ccc(C(=O)NCCn4cc(CO[C@]5(C(=O)[O-])C[C@H](O)[C@@H](NC(C)=O)[C@H]([C@H](O)[C@H](O)CNC(=O)c6ccc(-c7ccccc7)cc6)O5)nn4)cc3)nn2)(C(=O)[O-])C[C@@H]1O.[Na+].[Na+]` [Compound 125], for which the rIP is 8. The same measure for `CC(=O)N[C@H]1[C@H]([C@H](O)[C@H](O)CNC(=O)c2ccc(-c3ccccc3)cc2)O[C@@](OCCCSCCC(=O)NCc2ccc(CNC(=O)CCSCCCO[C@]3(C(=O)[O-])C[C@H](O)[C@@H](NC(C)=O)[C@H]([C@H](O)[C@H](O)CNC(=O)c4ccc(-c5ccccc5)cc4)O3)cc2)(C(=O)[O-])C[C@@H]1O.[Na+].[Na+]` [Compound 44]: 177; for `CC(=O)N[C@H]1[C@H]([C@H](O)[C@H](O)CNC(=O)c2ccc(-c3ccccc3)cc2)O[C@@](OCCCSCCNC(=O)c2ccc(C(=O)NCCSCCCO[C@]3(C(=O)[O-])C[C@H](O)[C@@H](NC(C)=O)[C@H]([C@H](O)[C@H](O)CNC(=O)c4ccc(-c5ccccc5)cc4)O3)cc2)(C(=O)[O-])C[C@@H]1OC(=O)c1ccccc1.[Na+].[Na+]` [Compound 147]: 32069. The same measure for `CC(=O)N[C@H]1[C@H]([C@H](O)[C@H](O)CNC(=O)c2ccc(-c3ccccc3)cc2)O[C@@](OCCCSCCNCc2ccc(CNCCSCCCO[C@]3(C(=O)[O-])C[C@H](O)[C@@H](NC(C)=O)[C@H]([C@H](O)[C@H](O)CNC(=O)c4ccc(-c5ccccc5)cc4)O3)cc2)(C(=O)[O-])C[C@@H]1O.[Na+].[Na+]` [Compound 52]: 31. The same measure for `CC(=O)N[C@H]1[C@H]([C@H](O)[C@H](O)CNC(=O)c2ccc(-c3ccccc3)cc2)O[C@@](OCCCSCCNC(=O)c2ccc(C(=O)NCCSCCCO[C@]3(C(=O)[O-])C[C@H](O)[C@@H](NC(C)=O)[C@H]([C@H](O)[C@H](O)CNC(=O)c4ccc(-c5ccccc5)cc4)O3)c3ccccc23)(C(=O)[O-])C[C@@H]1O.[Na+].[Na+]` [Compound 34]: 899; for `CC(=O)N[C@H]1[C@H]([C@H](O)[C@H](O)CNC(=O)c2ccc(-c3ccccc3)cc2)O[C@@](OCCCSCCNC(=O)c2ccc(-c3ccc(C(=O)NCCSCCCO[C@]4(C(=O)[O-])C[C@H](O)[C@@H](NC(C)=O)[C@H]([C@H](O)[C@H](O)CNC(=O)c5ccc(-c6ccccc6)cc5)O4)cc3)cc2)(C(=O)[O-])C[C@@H]1O.[Na+].[Na+]` [Compound 24]: 75; for `CC(=O)N[C@H]1[C@H]([C@H](O)[C@H](O)CNCc2ccc(-c3ccccc3)cc2)O[C@@](OCCCSCCNC(=O)c2ccc(C(=O)NCCSCCCO[C@]3(C(=O)[O-])C[C@H](O)[C@@H](NC(C)=O)[C@H]([C@H](O)[C@H](O)CNCc4ccc(-c5ccccc5)cc4)O3)cc2)(C(=O)[O-])C[C@@H]1O.[Na+].[Na+]` [Compound 85]: 1. The compound `CC(=O)N[C@H]1[C@H]([C@H](O)[C@H](O)CNC(=O)c2ccc(-c3ccccc3)cc2)O[C@@](OCCCSCCNC(=O)c2ccc(NC(=O)CCSCCCO[C@]3(C(=O)[O-])C[C@H](O)[C@@H](NC(C)=O)[C@H]([C@H](O)[C@H](O)CNC(=O)c4ccc(-c5ccccc5)cc4)O3)cc2)(C(=O)[O-])C[C@@H]1O.[Na+].[Na+]` [Compound 54] came in with a rIP of 7092.

Compound `CC(=O)N[C@H]1[C@H]([C@H](O)[C@H](O)CNC(=O)c2ccc(-c3ccsc3)cc2)O[C@@](OCCCSCCNC(=O)c2ccc(C(=O)NCCSCCCO[C@]3(C(=O)[O-])C[C@H](O)[C@@H](NC(C)=O)[C@H]([C@H](O)[C@H](O)CNC(=O)c4ccc(-c5ccsc5)cc4)O3)cc2)(C(=O)[O-])C[C@@H]1O.[Na+].[Na+]` [Compound 81] displayed a rIP of 2068. The same measure for `CC(=O)N[C@H]1[C@H]([C@H](O)[C@H](O)CNC(=O)c2ccc(-c3ccccc3)cc2)O[C@@](OCCCSCCC(=O)Nc2ccc(NC(=O)CCSCCCO[C@]3(C(=O)[O-])C[C@H](O)[C@@H](NC(C)=O)[C@H]([C@H](O)[C@H](O)CNC(=O)c4ccc(-c5ccccc5)cc4)O3)cc2)(C(=O)[O-])C[C@@H]1O.[Na+].[Na+]` [Compound 39]: 10760; for `CC(=O)N[C@H]1[C@H]([C@H](O)[C@H](O)CNC(=O)c2ccc(-c3ccccc3)cc2)O[C@@](OCCCSCCNC(=O)c2ccc(C(=O)NCCSCCCO[C@]3(C(=O)[O-])C[C@H](O)[C@@H](NC(C)=O)[C@H]([C@H](O)[C@H](O)CNC(=O)c4ccc(-c5ccccc5)cc4)O3)nc2)(C(=O)[O-])C[C@@H]1O.[Na+].[Na+]` [Compound 27]: 2990; for `COc1ccccc1-c1ccc(C(=O)NC[C@@H](O)[C@@H](O)[C@@H]2O[C@@](OCCCSCCNC(=O)c3ccc(C(=O)NCCSCCCO[C@]4(C(=O)[O-])C[C@H](O)[C@@H](NC(C)=O)[C@H]([C@H](O)[C@H](O)CNC(=O)c5ccc(-c6ccccc6OC)cc5)O4)cc3)(C(=O)[O-])C[C@H](O)[C@H]2NC(C)=O)cc1.[Na+].[Na+]` [Compound 74]: 27.

Compound `CC(=O)N[C@H]1[C@H]([C@H](O)[C@H](O)CNC(=O)c2ccc(-c3ccc([N+](=O)[O-])cc3[N+](=O)[O-])c([N+](=O)[O-])c2)O[C@@](OCCCSCCNC(=O)c2ccc(C(=O)NCCSCCCO[C@]3(C(=O)[O-])C[C@H](O)[C@@H](NC(C)=O)[C@H]([C@H](O)[C@H](O)CNC(=O)c4ccc(-c5ccc([N+](=O)[O-])cc5[N+](=O)[O-])c([N+](=O)[O-])c4)O3)cc2)(C(=O)[O-])C[C@@H]1O.[Na+].[Na+]` [Compound 69] returned a rIP of 14.

For the compound `CC(=O)N[C@H]1[C@H]([C@H](O)[C@H](O)CNC(=O)c2ccc(-c3cccs3)s2)O[C@@](OCCCSCCNC(=O)c2ccc(C(=O)NCCSCCCO[C@]3(C(=O)[O-])C[C@H](O)[C@@H](NC(C)=O)[C@H]([C@H](O)[C@H](O)CNC(=O)c4ccc(-c5cccs5)s4)O3)cc2)(C(=O)[O-])C[C@@H]1O.[Na+].[Na+]` [Compound 62], the rIP is given as 203.

The compound `CC(=O)N[C@H]1[C@H]([C@H](O)[C@H](O)CNC(=O)c2ccc(-c3ccccc3)cc2)O[C@@](OCCCSCCNC(=O)c2ccc(C(=O)NCCSCCCO[C@]3(C(=O)[O-])C[C@H](OC(=O)c4ccccc4)[C@@H](NC(C)=O)[C@H]([C@H](O)[C@H](O)CNC(=O)c4ccc(-c5ccccc5)cc4)O3)cc2)(C(=O)[O-])C[C@@H]1OC(=O)c1ccccc1.[Na+].[Na+]` [Compound 113] gave a rIP of 3522. As for `CC(=O)N[C@H]1[C@H]([C@H](O)[C@H](O)CNC(=O)c2ccc(-c3ccccc3)cc2)O[C@@](OCCCSCCNC(=O)Cc2ccc(CC(=O)NCCSCCCO[C@]3(C(=O)[O-])C[C@H](O)[C@@H](NC(C)=O)[C@H]([C@H](O)[C@H](O)CNC(=O)c4ccc(-c5ccccc5)cc4)O3)cc2)(C(=O)[O-])C[C@@H]1O.[Na+].[Na+]` [Compound 28], the figure is 129; as for `CC(=O)N[C@H]1[C@H]([C@H](O)[C@H](O)CNC(=O)C#Cc2ccccc2)O[C@@](OCCCSCCNC(=O)c2ccc(-c3ccc(C(=O)NCCSCCCO[C@]4(C(=O)[O-])C[C@H](O)[C@@H](NC(C)=O)[C@H]([C@H](O)[C@H](O)CNC(=O)C#Cc5ccccc5)O4)cc3)cc2)(C(=O)[O-])C[C@@H]1O.[Na+].[Na+]` [Compound 129], 21.
